Source: US10766869B2, “Triazoles for the treatment of demyelinating dieases” (Vertex Pharmaceuticals Incorporated, priority 2015, dated 2020)
Like-named read-outs stand apart in the source and are kept apart here.

System: primary rat mixed cortical cells
Experiment: In vitro myelination assay (MBP positive myelin strands, fold myelin pixels above background)
Format: cell-based
Conditions: for fold induction at 1 µM / fold induction at 10 µM: Rattus norvegicus
Outline: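 Mixed cortical culture, P1 rat, 87,500-95,000 cells/well; compound present from seeding, refreshed days 6 and 10; 14 d, 37 °C, 5% CO2. Day 14: PFA fix, anti-MBP + Hoechst. Read-out: fold MBP myelin pixels over untreated, tested at 1.0 and 10.0 μM.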

[1] = 1.0 μM compound, read-out: Fold myelin pixels above background relative to baseline of no added compound
[2] = 10.0 μM compound, read-out: Fold myelin pixels above background relative to baseline of no added compound
[3] = 1.0 μM compound, relative to baseline of no added compound, read-out: Fold myelin pixels above background, 1.0 μM
[4] = 10.0 μM compound, relative to baseline of no added compound, read-out: Fold myelin pixels above background, 10.0 μM
[5] = 1.0 μM compound, relative to baseline of no added compound, read-out: Fold myelin pixels above background
[6] = 10.0 μM compound, relative to baseline of no added compound, read-out: Fold myelin pixels above background

| SMILES | fold induction at 1 µM [1] | fold induction at 10 µM [2] | fold induction at 1 µM [5] | fold induction at 10 µM [6] | other results |
| --- | --- | --- | --- | --- | --- |
| [2H]C1([2H])N(c2cc(C)cc(Nc3ncn(-c4cc(F)cc(F)c4)n3)c2)C([2H])([2H])C([2H])([2H])N(C2CCC2)C1([2H])[2H] [Compound 994, N-[3-(4-cyclobutyl-2,2,3,3,5,5,6,6-octadeuterio-piperazin-1-yl)-5-methyl-phenyl]-1-(3,5-difluorophenyl)-1,2,4-triazol-3-amine] | 1 to 10 | 1 to 10 | – | – | – |
| Fc1cc(Nc2ncn(-c3ccccc3)n2)cc(N2CCCC2)c1 [Compound 336, N-(3-fluoro-5-pyrrolidin-1-yl-phenyl)-1-phenyl-1,2,4-triazol-3-amine] | – | – | – | – | fold induction at 1 µM [3]: 1 to 10; fold induction at 10 µM [4]: ≤ 1 |
| Cc1cc(Nc2ncn(-c3cccc(F)c3)n2)cc(N2CC3(C2)CN(C(C)C)C3)c1 [Compound 1071, 1-(3-fluorophenyl)-N-[3-(2-isopropyl-2,6-diazaspiro[3.3]heptan-6-yl)-5-methyl-phenyl]-1,2,4-triazol-3-amine] | 10 to 100 | ≤ 1 | – | – | – |
| CN1CCN(c2cc(F)cc(Nc3ncn(-c4ccc(F)cc4F)n3)c2)CC1 [Compound 450, 1-(2,4-difluorophenyl)-N-[3-fluoro-5-(4-methylpiperazin-1-yl)phenyl]-1,2,4-triazol-3-amine] | – | – | ≤ 1 | ≤ 1 | – |
| Cc1cc(Nc2ncn(-c3cc(F)cc(F)c3)n2)cc(N2CCN(CCN3CCOCC3)CC2)c1 [Compound 593, 1-(3,5-difluorophenyl)-N-[3-methyl-5-[4-(2-morpholinoethyl)piperazin-1-yl]phenyl]-1,2,4-triazol-3-amine] | – | – | 1 to 10 | ≤ 1 | – |
| c1ccc(-n2cnc(Nc3cc(C4CC4)nc(N4CCOCC4)c3)n2)cc1 [Compound 222, 2-cyclopropyl-6-morpholino-N-(1-phenyl-1,2,4-triazol-3-yl)pyridin-4-amine] | – | – | – | – | fold induction at 1 µM [3]: 100 to 1000; fold induction at 10 µM [4]: 1 to 10 |
| CCOCC1CCCN1c1cc(F)cc(-n2cnc(Nc3cc(C)cc(N4CCN(C5COC5)CC4)c3)n2)c1 (centres unmarked) [Compound 41, 1-[3-[2-(ethoxymethyl)pyrrolidin-1-yl]-5-fluoro-phenyl]-N-[3-methyl-5-[4-(oxetan-3-yl)piperazin-1-yl]phenyl]-1,2,4-triazol-3-amine] | – | – | – | – | fold induction at 1 µM [3]: 10 to 100; fold induction at 10 µM [4]: ≤ 1 |
| CCC1COCCN1CCNc1cc(C)cc(Nc2ncn(-c3cc(F)cc(F)c3)n2)c1 (centres unmarked) [Compound 872, N3-[1-(3,5-difluorophenyl)-1,2,4-triazol-3-yl]-N1-[2-(3-ethylmorpholin-4-yl)ethyl]-5-methyl-benzene-1,3-diamine] | 10 to 100 | ≤ 1 | – | – | – |
| Cc1cc(Nc2ncn(-c3cc(F)cc(F)c3)n2)cc([C@@H]2CN(C3COC3)CCO2)c1 (single isomer, unassigned) [Compound 751] | – | – | 10 to 100 | ≤ 1 | – |
| CCn1cnc(Nc2cc(C)cc(Nc3ncn(-c4ccccc4)n3)c2)n1 [Compound 604, N1-(1-ethyl-1,2,4-triazol-3-yl)-5-methyl-N3-(1-phenyl-1,2,4-triazol-3-yl)benzene-1,3-diamine] | – | – | 10 to 100 | ≤ 1 | – |
| CC1(N2CCN(c3cc(C(F)F)cc(Nc4ncn(-c5cc(F)cc(F)c5)n4)n3)CC2)COC1 [Compound 716, 4-(difluoromethyl)-N-[1-(3,5-difluorophenyl)-1,2,4-triazol-3-yl]-6-[4-(3-methyloxetan-3-yl)piperazin-1-yl]pyridin-2-amine] | – | – | 1 to 10 | 100 to 1000 | – |
| Cc1cc(Nc2ncn(-c3cc(F)cc(F)c3)n2)cc(NC2CC2)c1 [Compound 448, N1-cyclopropyl-N3-[1-(3,5-difluorophenyl)-1,2,4-triazol-3-yl]-5-methyl-benzene-1,3-diamine] | – | – | 100 to 1000 | 1 to 10 | – |
| Cc1cc(Nc2ncn(-c3cc(F)cc(F)c3)n2)c(F)c(N2CC3(CNC3)C2)c1 [Compound 688, N-[3-(2,6-diazaspiro[3.3]heptan-2-yl)-2-fluoro-5-methyl-phenyl]-1-(3,5-difluorophenyl)-1,2,4-triazol-3-amine] | – | – | 1 to 10 | ≤ 1 | – |
| Cc1cc(Nc2ncn(-c3ccc(C#N)cc3)n2)cc(N2CCN(C3COC3)CC2)c1 [Compound 687, 4-[3-[3-methyl-5-[4-(oxetan-3-yl)piperazin-1-yl]anilino]-1,2,4-triazol-1-yl]benzonitrile] | – | – | 1 to 10 | 1 to 10 | – |
| Cc1cc(Nc2ncn(-c3cc(F)cc(F)c3)n2)cc(N2CCC3OCC3C2)c1 (centres unmarked) [Compound 1057, 1-(3,5-difluorophenyl)-N-[3-methyl-5-(8-oxa-4-azabicyclo[4.2.0]octan-4-yl)phenyl]-1,2,4-triazol-3-amine] | 1 to 10 | ≤ 1 | – | – | – |
| Cc1cc(Nc2ncn(-c3ccccc3)n2)c(F)c(OC2CCOC2)c1 (centres unmarked) [Compound 907, N-(2-fluoro-5-methyl-3-tetrahydrofuran-3-yloxy-phenyl)-1-phenyl-1,2,4-triazol-3-amine] | 10 to 100 | 100 to 1000 | – | – | – |
| Cc1cc(Nc2ncn(-c3cc(F)cc(F)c3)n2)cc(N2CC(C)(C#N)C2)c1 [Compound 1076, 1-[3-[[1-(3,5-difluorophenyl)-1,2,4-triazol-3-yl]amino]-5-methyl-phenyl]-3-methyl-azetidine-3-carbonitrile] | 10 to 100 | ≤ 1 | – | – | – |
| Cc1cc(Nc2ncn(-c3cc(F)cc(F)c3)n2)cc(N2CC3CCC(C2)O3)c1 [Compound 692, 1-(3,5-difluorophenyl)-N-[3-methyl-5-(8-oxa-3-azabicyclo[3.2.1]octan-3-yl)phenyl]-1,2,4-triazol-3-amine] | – | – | 10 to 100 | 10 to 100 | – |
| Cc1cc(Nc2ncn(-c3cc(F)ccc3F)n2)cc(N2CCN(C3COC3)CC2)c1 [Compound 437, 1-(2,5-difluorophenyl)-N-[3-methyl-5-[4-(oxetan-3-yl)piperazin-1-yl]phenyl]-1,2,4-triazol-3-amine] | – | – | 10 to 100 | 10 to 100 | – |
| N#Cc1cc(Nc2ncn(-c3cc(F)cc(F)c3)n2)nc(N2CCN(C3COC3)CC2)c1 [Compound 853, 2-[[1-(3,5-difluorophenyl)-1,2,4-triazol-3-yl]amino]-6-[4-(oxetan-3-yl)piperazin-1-yl]pyridine-4-carbonitrile] | 1 to 10 | 10 to 100 | – | – | – |
| N#Cc1cc(Nc2ncn(-c3cccc(F)c3)n2)cc(N2CCN(C3COC3)CC2)c1 [Compound 793, 3-[[1-(3-fluorophenyl)-1,2,4-triazol-3-yl]amino]-5-[4-(oxetan-3-yl)piperazin-1-yl]benzonitrile] | 1 to 10 | ≤ 1 | – | – | – |
| CC(C)(O)[C@@H]1CN(c2cc(Nc3ncn(-c4cc(F)cc(F)c4)n3)cc(C(F)(F)F)c2)CCN1 [Compound 123, 2-[(2S)-4-[3-[[1-(3,5-difluorophenyl)-1,2,4-triazol-3-yl]amino]-5-(trifluoromethyl)phenyl]piperazin-2-yl]propan-2-ol] | – | – | – | – | fold induction at 1 µM [3]: 1 to 10; fold induction at 10 µM [4]: ≤ 1 |
| Cc1cc(Nc2ncn(-c3cc(F)cc(F)c3)n2)cc([C@@H]2CCN(C3COC3)C[C@@H]2F)c1.Cc1cc(Nc2ncn(-c3cc(F)cc(F)c3)n2)cc([C@H]2CCN(C3COC3)C[C@H]2F)c1 [Compound 208, 1-(3,5-difluorophenyl)-N-[3-[(3S,4R)-3-fluoro-1-(oxetan-3-yl)-4-piperidyl]-5-methyl-phenyl]-1,2,4-triazol-3-amine; 1-(3,5-difluorophenyl)-N-[3-[(3R,4S)-3-fluoro-1-(oxetan-3-yl)-4-piperidyl]-5-methyl-phenyl]-1,2,4-triazol-3-amine] | – | – | – | – | Fold myelin pixels above background, 1.0 μM (1.0 μM compound, relative to baseline of no added compound): +++ (>100 to 1000x); Fold myelin pixels above background, 10.0 μM (10.0 μM compound, relative to baseline of no added compound): − (≤1) |
| Cc1cc(Nc2ncn(-c3cc(F)cc(F)c3)n2)cc([C@@H]2CCN(C3COC3)C2)c1 (single isomer, unassigned) [Compound 92] | – | – | – | – | fold induction at 1 µM [3]: 1000 to 10000; fold induction at 10 µM [4]: 100 to 1000 |
| Cc1cc(Nc2ncn(-c3cc(F)cc(F)c3)n2)cc(N2CC(C)(N3CCOCC3)C2)c1 [Compound 683, 1-(3,5-difluorophenyl)-N-[3-methyl-5-(3-methyl-3-morpholino-azetidin-1-yl)phenyl]-1,2,4-triazol-3-amine] | – | – | 10 to 100 | 10 to 100 | – |
| Cc1cc(NCCN2CCOC(C)C2)cc(Nc2ncn(-c3cc(F)cc(F)c3)n2)c1 (centres unmarked) [Compound 928, N1-[1-(3,5-difluorophenyl)-1,2,4-triazol-3-yl]-5-methyl-N3-[2-(2-methylmorpholin-4-yl)ethyl]benzene-1,3-diamine] | 10 to 100 | ≤ 1 | – | – | – |
| CCc1cc(Nc2ncn(-c3ccc(OC(F)(F)F)cc3)n2)cc(N2CCN(C3COC3)CC2)c1 [Compound 303, N-[3-ethyl-5-[4-(oxetan-3-yl)piperazin-1-yl]phenyl]-1-[4-(trifluoromethoxy)phenyl]-1,2,4-triazol-3-amine] | – | – | – | – | fold induction at 1 µM [3]: 1 to 10; fold induction at 10 µM [4]: 1 to 10 |
| Fc1ccc(-n2cnc(Nc3cc(C4CC4)nc(N4CC[C@@H](F)C4)c3)n2)cc1F [Compound 498, 2-cyclopropyl-N-[1-(3,4-difluorophenyl)-1,2,4-triazol-3-yl]-6-[(3R)-3-fluoropyrrolidin-1-yl]pyridin-4-amine] | – | – | 100 to 1000 | 100 to 1000 | – |
